Data set [1] deals with T1, XPO1 (Mus musculus, UniProt Q6P5F9).
T1 construct: the blood from the mice for each dose (n = 4) was pooled and PBMCs were immediately isolated; from tissue; host or cells: PBMCs from pooled blood of orally dosed mice
Put plainly: XPO1 occupancy assay in PBMCs from mice dosed orally with selinexor. The format is in vivo. The method, then:
In order to have enough PBMCs to assay, the blood from the mice for each dose (n = 4) was pooled and PBMCs were immediately isolated. Mouse PBMCs were incubated with 1 nM b-LMB for 1.5 hours ex vivo then collected and prepared for the XPO1 occupancy assay.
Using similar conditions, we sought to determine the duration of XPO1 occupancy by SINE compounds in mice. […] The mice were then terminally bled at 4, 24, 36, 48, 60, 72, and 96 hours post dose (n = 4 mice per dose per time point). Blood for each dose at each time point was pooled and PMBCs were isolated. Mouse PBMCs were incubated with 1 nM b-LMB for 1.5 hours ex vivo before being processed for the XPO1 occupancy assay. Both 3 and 10 mg/kg had time-dependent increases in the ratio of free-fraction XPO1, with 50% XPO1 occupancy being sustained for up to 72 hours post-treatment (Figure 5B).
Human donor blood collected in Vacutainer® EDTA tubes (BD) (BioreclamationIVT) was purchased for peripheral blood mononuclear cells (PBMCs) isolation. […] Mouse whole blood was collected in Vacutainer® EDTA tubes (BD) and pooled from each group for each time point. Human and mouse PBMCs were separated by Ficoll (GE Healthcare) gradient. Human PMBCs were cryogenically preserved in Recovery™ Cell Culture Freezing Medium (Gibco). […] Freshly isolated PBMCs from control or selinexor-treated mice were treated ex vivo with 1 nM b-LMB for 1.5 hours prior to collection and processing for the XPO1 occupancy assay.
Cells were collected, washed with PBS, and lysed with RIPA Buffer (Thermo Scientific) with protease inhibitors [Complete Ultra Tablets, Mini, EDTA-free, Easy pack (Roche), PhosStop Easy (Roche)]. A portion of the lysate was reserved (input) while the rest was added to washed Dynabeads MyOne Streptavidin T1 (Invitrogen) with RIPA Buffer. Samples were incubated overnight with constant rotation at 4°C. Beads were then washed 5 times with modified RIPA (150 mM NaCl, 50 mM Tris, 1% NP-40, 0.1% Na deoxycholate, 1 mM EDTA, pH 7.8). The reserved portion of lysates (input) and the beads were each mixed with Protein Simple buffer (Protein Simple), DTT (Invitrogen), and fluorescent standards (Protein Simple), then boiled at 95°C for 10 min. Eluates and inputs were analyzed using a capillary western method (Peggy Sue; Protein Simple) with the following primary antibodies: XPO1 (Santa Cruz) and β-actin (Santa Cruz). Capillary westerns were performed by SBH Sciences (Natick, MA). Peak areas corresponding to the protein molecular weight of XPO1 and actin were compared for sample inputs, while the ratio of XPO1 peak areas in eluate to input (ratio of bound or free-fraction XPO1) versus compound concentration were used in XLFit model 205 to calculate 50% and 90% occupancy curves.

Data set [2] deals with MM.1S. Put plainly: MTT cytotoxicity assay. The format is cell-based. To be noted: Homo sapiens, MM1.S. In general terms: Formazan colour is commonly taken as a measure of viable cells.
Data set [3] relates to AML3. Put plainly: MTT cytotoxicity assay. The data set is classed as cell-based.
The test system of data set [4] is HT1080. Put plainly: MTT cytotoxicity assay. The format is cell-based. To be noted: Homo sapiens, HT-1080, read-out: Selinexor IC50 (μM).
For data set [5], the system named is HEL. Briefly: MTT cytotoxicity assay. The data set is classed as cell-based. As to conditions: Homo sapiens, read-out: Selinexor IC50 (μM).
The test system of data set [6] is Kasumi-6. Briefly: MTT cytotoxicity assay. The data set is classed as cell-based. As to conditions: read-out: Selinexor IC50 (μM).
For data set [7], the system named is THP-1. Briefly: MTT cytotoxicity assay. The data set is classed as cell-based. To be noted: Homo sapiens, read-out: Selinexor IC50 (μM).
The test system of data set [8] is HT1080 resistant. Briefly: MTT cytotoxicity assay. The format is cell-based. To be noted: Homo sapiens, HT-1080, read-out: Selinexor IC50 (μM).
Data set [9] concerns A549. Put plainly: MTT cytotoxicity assay. The format is cell-based. As to conditions: Homo sapiens, read-out: Selinexor IC50 (μM).
In data set [10] the test system is UCH1. Briefly: MTT cytotoxicity assay. As to conditions: read-out: Selinexor IC50 (μM). The data set is classed as cell-based.
Data set [11] has as its system ASPS-KY. Put plainly: MTT cytotoxicity assay. The format is cell-based. As to conditions: read-out: Selinexor IC50 (μM).
For data set [12] the following is noted: humans; clinical PK analysis, no reference given; cited from earlier work.
The mark [13] stands for this setting: single oral dose, 4 hours post-dosing.
[14] abbreviates: read-out: Selinexor IC50 (μM), MTT.

pIC50: −log10 of the molar value. Where two headings read alike, the source gives them in different places.

T1 sequence (Q6P5F9 whole entry): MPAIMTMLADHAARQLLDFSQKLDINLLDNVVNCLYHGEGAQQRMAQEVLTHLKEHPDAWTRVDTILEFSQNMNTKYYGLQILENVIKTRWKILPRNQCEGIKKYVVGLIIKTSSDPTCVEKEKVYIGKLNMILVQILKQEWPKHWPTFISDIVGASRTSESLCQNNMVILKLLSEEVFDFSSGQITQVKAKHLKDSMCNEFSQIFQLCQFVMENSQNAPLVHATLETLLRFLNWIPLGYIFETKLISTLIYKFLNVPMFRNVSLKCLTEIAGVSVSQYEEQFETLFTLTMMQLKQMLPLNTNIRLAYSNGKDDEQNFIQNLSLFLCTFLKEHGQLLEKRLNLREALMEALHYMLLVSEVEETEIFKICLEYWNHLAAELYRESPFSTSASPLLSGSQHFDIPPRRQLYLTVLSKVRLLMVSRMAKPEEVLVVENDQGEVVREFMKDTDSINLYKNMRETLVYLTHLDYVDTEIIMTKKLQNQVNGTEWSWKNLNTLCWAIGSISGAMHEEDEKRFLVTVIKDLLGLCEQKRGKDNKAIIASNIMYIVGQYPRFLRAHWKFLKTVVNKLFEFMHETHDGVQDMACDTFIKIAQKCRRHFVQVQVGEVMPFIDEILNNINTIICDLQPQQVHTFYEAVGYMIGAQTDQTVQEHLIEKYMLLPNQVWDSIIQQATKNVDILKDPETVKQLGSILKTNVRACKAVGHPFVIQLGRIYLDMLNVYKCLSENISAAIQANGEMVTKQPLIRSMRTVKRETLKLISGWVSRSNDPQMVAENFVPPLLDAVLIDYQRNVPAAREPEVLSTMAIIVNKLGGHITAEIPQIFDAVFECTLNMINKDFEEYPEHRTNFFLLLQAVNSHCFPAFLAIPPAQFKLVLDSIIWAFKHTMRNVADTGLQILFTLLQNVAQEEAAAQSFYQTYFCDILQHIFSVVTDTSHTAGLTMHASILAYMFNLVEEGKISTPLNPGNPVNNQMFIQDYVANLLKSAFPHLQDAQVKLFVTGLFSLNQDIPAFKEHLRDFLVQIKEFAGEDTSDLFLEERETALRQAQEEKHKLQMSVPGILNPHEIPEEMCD

As for `O=C(/C=C\n1cnc(-c2cc(C(F)(F)F)cc(C(F)(F)F)c2)n1)NNc1cnccn1` [Selinexor, selinexor], in data set [1] (single oral dose of 3 mg/kg), the “time at which full saturation of XPO1 was achieved” value was in the range of 4 to 24 h. Further, in data set [1] (single oral dose of 3 and 10 mg/kg), the “time for which 50% XPO1 occupancy is sustained post-treatment” value is listed as “up to 72 hours”. For the same molecule, the “amount of selinexor required to occupy 50% of XPO1” value in data set [1] (setting [13]) is reported as 1.84 mg/kg. The “amount of selinexor to achieve 90% XPO1 occupancy” value in data set [1] (setting [13]) was over 10 mg/kg. For the same molecule, the pIC50 is 7.70 in data set [2] (72 hours, read-out: IC50) and 6.57 in data set [3] (72 hours, read-out: IC50). Further, the half-inhibitory concentration (IC50) in [2] (setting [14]) amounted to 0.02 µM; in [3] (setting [14]) it was 0.27 µM; in [4] it was 0.07 µM; in data set [5], 0.35 µM; in [6] it was 0.53 µM; in data set [7], 1.06 µM. Further, the IC50 in data set [8] is 2.4 µM; in [9] it was 3 µM; in [10], 7 µM; in data set [11], over 10 µM. For the same molecule, in data set [12], the Tmax is about 4 h. For the same molecule, the “near complete plasma clearance by (time post-dose)” value in data set [12] is about 24 h.

The term pIC50 denotes −log10 of the IC50, conventionally taken in molar units. By IC50 is commonly meant the point on the concentration scale where inhibition reaches its midpoint. For orientation: Tmax means the time from dosing to the highest level.
